Results on two compounds are retold here after ChEMBL document CHEMBL1201862, “PubChem BioAssay data set” (2004).

What all share (type): functional
Experiment [1] has as its target Multidrug resistance protein CDR1 (Candida albicans, UniProt P43071). The experiment can be described thus: CaCdr1 efflux pump inhibitor potency, dose response, singleplex, Cherry Pick2 set (AID 623996). The settings on record: read-out: EC50_MICROM.
The target of experiment [2] is Multidrug resistance protein CDR2 (Candida albicans (strain SC5314 / ATCC MYA-2876) (Yeast), UniProt P78595). Briefly: CaCDR2 efflux pump inhibitors in yeast, dose response, S. cerevisiae AD1-8u, singleplex, Cherry Pick2 set (AID 623994). The settings on record: read-out: EC50_MICROM.
Experiment [3] in a line: Luminescence Cell-Based Dose Retest to Confirm Inhibitors of Cancer Stem Cells. [Related pubchem assays (depositor defined):AID2717, AID2721]. The settings on record: Homo sapiens.
A short description of experiment [4]: Counterscreen for antagonists of the orexin 1 receptor (OX1R; HCRTR1): Fluorescence-based cell-based high throughput dose response assay to identify antagonists of the parental CHO cell line. [Related pubchem assays (depositor defined):AID434989, AID435008, AID463079, AID485270, AID492963, AID492964, AID492965, AID493232, AID504699, AID504701].
For experiment [5], the target named is Benomyl/methotrexate resistance protein (Candida albicans, UniProt P28873). Briefly: CaMdr1 efflux pump inhibitor potency, dose response, singleplex, Cherry Pick2 set (AID 623992). The settings on record: read-out: EC50_MICROM.
In experiment [6] the target is T1, Orexin/Hypocretin receptor type 1 (Homo sapiens, UniProt O43613).
T1 sequence (O43613 whole entry): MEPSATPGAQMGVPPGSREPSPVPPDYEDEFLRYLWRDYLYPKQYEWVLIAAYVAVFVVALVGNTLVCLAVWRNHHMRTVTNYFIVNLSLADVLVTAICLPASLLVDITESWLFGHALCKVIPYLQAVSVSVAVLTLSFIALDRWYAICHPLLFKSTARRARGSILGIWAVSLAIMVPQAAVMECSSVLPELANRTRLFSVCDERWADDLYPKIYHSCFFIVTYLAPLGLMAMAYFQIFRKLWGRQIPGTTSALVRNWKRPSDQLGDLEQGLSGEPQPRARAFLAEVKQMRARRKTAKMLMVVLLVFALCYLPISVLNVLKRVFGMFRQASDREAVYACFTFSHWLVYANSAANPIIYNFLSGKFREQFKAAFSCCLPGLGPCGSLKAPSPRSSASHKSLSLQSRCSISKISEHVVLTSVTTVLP
Briefly: Homogeneous Time Resolved Fluorescence (HTRF)-based cell-based high throughput dose response assay for antagonists of the orexin 1 receptor (OX1R; HCRTR1). [Related pubchem assays (depositor defined):AID434989, AID435008, AID463079, AID485270, AID492963, AID492964, AID492965, AID493232, AID504717, AID504718].

The subject of experiment [7] is CHO-K1. The experiment can be described thus: Counterscreen for antagonists of the orexin 1 receptor (OX1R; HCRTR1): Homogeneous time resolved fluorescence (HTRF)-based cell-based dose response assay to identify antagonists of the parental CHO-K1 cell line. [Related pubchem assays (depositor defined):AID434989, AID435008, AID463079, AID485270, AID492963, AID492964, AID492965, AID493232, AID504699, AID504701]. The settings on record: Cricetulus griseus. On the technique in general: Counterscreens check selectivity or assay interference.

Experiment [8] addresses T2, Ubiquitin-conjugating enzyme E2 N (Homo sapiens, UniProt P61088).
T2 sequence (P61088 whole entry): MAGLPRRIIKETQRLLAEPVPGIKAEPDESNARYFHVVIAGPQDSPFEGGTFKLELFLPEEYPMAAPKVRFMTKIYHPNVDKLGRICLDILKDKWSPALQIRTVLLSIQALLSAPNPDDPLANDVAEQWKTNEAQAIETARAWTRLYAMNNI

Experiment [9] addresses T1, Orexin/Hypocretin receptor type 1. Briefly: Fluorescence-based cell-based high throughput dose response assay for antagonists of the orexin 1 receptor (OX1R; HCRTR1). [Related pubchem assays (depositor defined):AID434989, AID435008, AID463079, AID485270, AID492963, AID492964, AID492965, AID493232, AID504717, AID504718].
Experiment [10] has as its target T3, Apoptotic protease-activating factor 1 (Homo sapiens, UniProt O14727).
T3 sequence (O14727 whole entry): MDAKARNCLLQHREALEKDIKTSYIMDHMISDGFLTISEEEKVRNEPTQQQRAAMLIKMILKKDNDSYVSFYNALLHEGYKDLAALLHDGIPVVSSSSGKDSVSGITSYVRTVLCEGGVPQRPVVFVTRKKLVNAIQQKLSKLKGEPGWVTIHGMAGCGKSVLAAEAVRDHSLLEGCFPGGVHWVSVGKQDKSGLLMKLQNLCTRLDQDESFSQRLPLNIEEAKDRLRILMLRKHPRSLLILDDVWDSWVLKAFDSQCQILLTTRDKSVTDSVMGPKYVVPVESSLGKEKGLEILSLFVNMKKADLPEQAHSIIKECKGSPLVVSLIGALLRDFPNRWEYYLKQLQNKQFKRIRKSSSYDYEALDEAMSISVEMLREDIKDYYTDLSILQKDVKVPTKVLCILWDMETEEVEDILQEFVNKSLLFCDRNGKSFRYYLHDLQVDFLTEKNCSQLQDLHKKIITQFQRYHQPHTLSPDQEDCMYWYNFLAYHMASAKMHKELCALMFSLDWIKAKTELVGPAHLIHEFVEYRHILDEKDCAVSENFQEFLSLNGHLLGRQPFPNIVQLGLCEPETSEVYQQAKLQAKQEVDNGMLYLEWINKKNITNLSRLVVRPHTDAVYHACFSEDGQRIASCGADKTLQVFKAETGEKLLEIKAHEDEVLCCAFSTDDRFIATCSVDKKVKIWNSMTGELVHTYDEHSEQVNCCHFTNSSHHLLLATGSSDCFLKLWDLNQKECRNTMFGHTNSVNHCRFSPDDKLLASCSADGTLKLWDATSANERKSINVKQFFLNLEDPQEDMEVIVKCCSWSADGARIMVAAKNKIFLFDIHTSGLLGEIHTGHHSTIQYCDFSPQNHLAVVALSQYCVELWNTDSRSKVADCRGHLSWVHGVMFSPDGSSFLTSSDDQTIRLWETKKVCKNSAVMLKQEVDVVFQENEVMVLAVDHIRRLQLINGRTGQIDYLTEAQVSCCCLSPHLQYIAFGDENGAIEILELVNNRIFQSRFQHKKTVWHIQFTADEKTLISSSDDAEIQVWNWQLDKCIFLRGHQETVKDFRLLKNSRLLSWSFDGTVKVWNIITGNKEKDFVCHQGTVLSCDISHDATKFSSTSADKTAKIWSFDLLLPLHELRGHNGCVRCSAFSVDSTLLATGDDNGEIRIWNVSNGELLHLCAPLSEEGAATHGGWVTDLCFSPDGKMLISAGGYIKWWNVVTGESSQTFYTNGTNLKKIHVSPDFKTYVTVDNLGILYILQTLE
The experiment can be described thus: SAR analysis of small molecule Activators of Apaf-1 in a Fluorescent assay - set 2. The settings on record: read-out: EC50_Mean.

Experiment [11] can be described thus: SAR analysis of small molecule activators of Apaf-1 using a LZ-Caspase-9/Caspase-3 Fluorescent Selectivity assay - Set 2. The settings on record: read-out: EC50_Mean.

One may read the AC50 as the concentration at which the activity in the assay is half-maximal. As usually defined, the IC50 is the concentration needed to halve the response being measured.

Structures are written as SMILES. The source made the active and inactive calls. Unless noted, no cut-off for these calls is given here.
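Throughout, for AC50: cells exposed to compound for roughly 70 hours or longer before luminescence read.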

Chain of Multidrug resistance protein CDR2 (P78595 whole entry): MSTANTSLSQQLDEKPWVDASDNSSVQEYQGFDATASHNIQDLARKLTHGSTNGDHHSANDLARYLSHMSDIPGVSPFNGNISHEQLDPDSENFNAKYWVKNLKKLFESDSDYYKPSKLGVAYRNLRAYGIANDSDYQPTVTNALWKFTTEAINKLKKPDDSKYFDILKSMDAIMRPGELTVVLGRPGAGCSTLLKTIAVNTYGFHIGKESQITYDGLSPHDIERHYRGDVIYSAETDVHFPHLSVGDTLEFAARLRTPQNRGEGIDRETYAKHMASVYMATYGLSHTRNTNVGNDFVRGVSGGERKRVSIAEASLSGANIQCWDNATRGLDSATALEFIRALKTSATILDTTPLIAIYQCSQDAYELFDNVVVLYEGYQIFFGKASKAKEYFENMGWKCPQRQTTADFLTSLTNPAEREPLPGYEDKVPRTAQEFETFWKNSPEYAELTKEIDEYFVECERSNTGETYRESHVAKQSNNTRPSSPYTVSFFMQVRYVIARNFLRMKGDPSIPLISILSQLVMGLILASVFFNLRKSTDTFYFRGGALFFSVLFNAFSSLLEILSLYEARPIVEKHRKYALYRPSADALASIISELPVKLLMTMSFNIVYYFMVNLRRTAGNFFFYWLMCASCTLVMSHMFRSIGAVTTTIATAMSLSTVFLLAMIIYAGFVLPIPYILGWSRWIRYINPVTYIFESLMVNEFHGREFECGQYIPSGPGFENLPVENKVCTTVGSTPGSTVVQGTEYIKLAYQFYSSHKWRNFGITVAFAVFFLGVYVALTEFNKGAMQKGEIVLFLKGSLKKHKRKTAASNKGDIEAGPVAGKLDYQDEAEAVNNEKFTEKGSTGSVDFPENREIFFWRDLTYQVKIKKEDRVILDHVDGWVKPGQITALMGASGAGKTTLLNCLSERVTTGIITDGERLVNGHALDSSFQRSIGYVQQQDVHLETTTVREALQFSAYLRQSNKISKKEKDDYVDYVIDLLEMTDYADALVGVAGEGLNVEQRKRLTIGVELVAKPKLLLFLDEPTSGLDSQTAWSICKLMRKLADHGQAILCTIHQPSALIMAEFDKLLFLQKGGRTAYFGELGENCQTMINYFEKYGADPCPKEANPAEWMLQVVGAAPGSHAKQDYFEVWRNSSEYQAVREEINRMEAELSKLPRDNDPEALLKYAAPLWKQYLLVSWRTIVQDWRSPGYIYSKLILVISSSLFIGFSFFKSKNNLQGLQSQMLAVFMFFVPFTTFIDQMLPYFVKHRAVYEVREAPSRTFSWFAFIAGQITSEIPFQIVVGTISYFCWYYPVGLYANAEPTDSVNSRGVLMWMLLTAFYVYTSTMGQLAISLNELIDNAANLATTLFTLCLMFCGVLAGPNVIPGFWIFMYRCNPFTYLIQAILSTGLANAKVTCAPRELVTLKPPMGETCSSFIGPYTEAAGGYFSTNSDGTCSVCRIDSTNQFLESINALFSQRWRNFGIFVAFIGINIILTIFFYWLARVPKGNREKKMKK
Chain of Multidrug resistance protein CDR1 (P43071 whole entry, looked up): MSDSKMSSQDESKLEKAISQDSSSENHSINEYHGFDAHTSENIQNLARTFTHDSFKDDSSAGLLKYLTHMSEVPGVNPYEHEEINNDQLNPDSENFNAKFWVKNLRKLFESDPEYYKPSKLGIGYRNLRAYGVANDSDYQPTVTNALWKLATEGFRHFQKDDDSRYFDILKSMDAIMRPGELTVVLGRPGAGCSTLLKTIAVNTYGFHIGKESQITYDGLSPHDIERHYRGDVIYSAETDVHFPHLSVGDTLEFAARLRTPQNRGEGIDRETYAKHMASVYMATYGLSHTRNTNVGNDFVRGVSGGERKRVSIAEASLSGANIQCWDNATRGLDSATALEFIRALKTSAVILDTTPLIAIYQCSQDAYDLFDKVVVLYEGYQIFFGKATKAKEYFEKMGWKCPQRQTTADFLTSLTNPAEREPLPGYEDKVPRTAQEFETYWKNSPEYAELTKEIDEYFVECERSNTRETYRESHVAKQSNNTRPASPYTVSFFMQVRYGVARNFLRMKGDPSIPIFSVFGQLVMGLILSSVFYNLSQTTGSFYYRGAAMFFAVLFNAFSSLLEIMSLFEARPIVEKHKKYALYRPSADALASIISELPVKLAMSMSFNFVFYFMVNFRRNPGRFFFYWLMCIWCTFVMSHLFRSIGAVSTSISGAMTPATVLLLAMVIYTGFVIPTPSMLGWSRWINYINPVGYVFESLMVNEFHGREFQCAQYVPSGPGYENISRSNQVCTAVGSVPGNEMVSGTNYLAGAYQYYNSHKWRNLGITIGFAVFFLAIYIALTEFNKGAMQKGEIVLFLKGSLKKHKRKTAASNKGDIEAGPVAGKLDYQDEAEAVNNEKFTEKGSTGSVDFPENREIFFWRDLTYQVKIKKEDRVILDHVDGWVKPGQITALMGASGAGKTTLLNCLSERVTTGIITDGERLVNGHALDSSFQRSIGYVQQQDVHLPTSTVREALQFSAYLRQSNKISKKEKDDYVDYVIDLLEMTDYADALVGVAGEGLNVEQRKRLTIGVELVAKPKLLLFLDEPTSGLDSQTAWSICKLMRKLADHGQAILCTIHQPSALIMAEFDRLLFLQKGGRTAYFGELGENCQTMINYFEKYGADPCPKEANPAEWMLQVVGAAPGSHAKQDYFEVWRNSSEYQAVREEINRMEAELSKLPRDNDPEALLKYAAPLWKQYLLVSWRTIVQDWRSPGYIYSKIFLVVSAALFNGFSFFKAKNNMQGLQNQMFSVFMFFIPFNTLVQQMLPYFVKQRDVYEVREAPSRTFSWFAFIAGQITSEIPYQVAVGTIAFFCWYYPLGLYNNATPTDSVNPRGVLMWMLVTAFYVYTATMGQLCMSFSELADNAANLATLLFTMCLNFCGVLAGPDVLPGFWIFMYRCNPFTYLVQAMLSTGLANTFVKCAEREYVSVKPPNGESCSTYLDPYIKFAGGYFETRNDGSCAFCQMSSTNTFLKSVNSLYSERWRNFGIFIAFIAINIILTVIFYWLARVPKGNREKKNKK
Chain of Benomyl/methotrexate resistance protein (P28873 whole entry): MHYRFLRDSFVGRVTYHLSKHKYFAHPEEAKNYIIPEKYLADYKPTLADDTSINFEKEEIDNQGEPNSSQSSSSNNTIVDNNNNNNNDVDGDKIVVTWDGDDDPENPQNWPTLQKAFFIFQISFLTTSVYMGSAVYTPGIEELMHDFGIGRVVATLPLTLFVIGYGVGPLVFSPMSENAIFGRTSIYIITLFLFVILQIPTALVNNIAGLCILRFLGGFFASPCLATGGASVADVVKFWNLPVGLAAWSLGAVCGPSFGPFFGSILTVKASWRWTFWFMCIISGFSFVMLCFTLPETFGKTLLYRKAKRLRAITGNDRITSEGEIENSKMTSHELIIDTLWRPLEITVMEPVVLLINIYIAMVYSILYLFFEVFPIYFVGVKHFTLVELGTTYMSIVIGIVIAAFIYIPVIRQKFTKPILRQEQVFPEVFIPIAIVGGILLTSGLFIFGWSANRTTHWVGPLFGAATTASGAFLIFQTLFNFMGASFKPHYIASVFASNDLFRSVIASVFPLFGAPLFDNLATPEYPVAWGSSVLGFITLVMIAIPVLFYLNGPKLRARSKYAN

Turning to `COc1cccc(-c2sc3ccc(OC)cc3c2-c2ccc(OCCN(C)C)cc2)c1`, the EC50 in experiment [1] was 26.8 µM (active); in experiment [2], 15.2 µM (active); in [5] it was 32.1 µM (active). Besides, the AC50 in [3] is 3.37 µM (active). Besides, the IC50 in [4] is 17.5 µM (inactive); in [6], > 66.2 µM (inactive); in [7] it was > 66.2 µM (inactive); in experiment [8], > 20 µM (inactive); in experiment [9] it was 15.8 µM (inactive).

Take `CC(CN1CCCC1)C(=O)O` (stereo unspecified): the EC50 in experiment [10] and in experiment [11] was > 100 µM (inactive) each time.
